The values that follow come from patent US7332506B2, “Substituted-3-indolyl-4-piperidino-alkyl heterocycles for the treatment of depression” (Wyeth, priority 2002, dated 2008).

One series deals with T1, 5-HT transporter (Rattus norvegicus, UniProt P31652).
T1 construct: from tissue; host or cells: rat frontal cortex membranes (male Sprague-Dawley rats)
The series is described as follows: Rat Brain 3H-Paroxetine Binding Assay (RB 5HT Transporter). The procedure:
Rat Brain ^3H-Paroxetine Binding Assay (RB 5HT Transporter):
This assay was used to determine a compound's affinity of the 5-HT transporter.
A protocol similar to that used by Cheetham et. al. (Neuropharmacol. 1993, 32, 737) was used. Briefly, frontal cortical membranes prepared from male S.D. rats were incubated with ^3H-parxetine (0.1 nM) for 60 min. at 25° C. All tubes also contained either vehicle, test compound (one to eight concentrations), or a saturating concentration of fluoxetine (10 μM) to define […]. All reactions are terminated by the addition of ice cold Tris buffer followed by rapid filtration using a Tom Tech filtration device to separate bound from free ^3H-paroxetine. Bound radioactivity was quantitated using a Wallac 1205 Beta Plate® counter. Nonlinear regression analysis was used to determine IC50 values which were converted to Ki values using the method of Cheng and Prusoff (Biochem. Pharmacol. 1973, 22, 3099);

The next series deals with T2, human 5-HT1A receptors (Homo sapiens, UniProt P08908).
T2 construct: expressed in transfected cells; host or cells: CHO cells
T2 sequence (P08908 1-422): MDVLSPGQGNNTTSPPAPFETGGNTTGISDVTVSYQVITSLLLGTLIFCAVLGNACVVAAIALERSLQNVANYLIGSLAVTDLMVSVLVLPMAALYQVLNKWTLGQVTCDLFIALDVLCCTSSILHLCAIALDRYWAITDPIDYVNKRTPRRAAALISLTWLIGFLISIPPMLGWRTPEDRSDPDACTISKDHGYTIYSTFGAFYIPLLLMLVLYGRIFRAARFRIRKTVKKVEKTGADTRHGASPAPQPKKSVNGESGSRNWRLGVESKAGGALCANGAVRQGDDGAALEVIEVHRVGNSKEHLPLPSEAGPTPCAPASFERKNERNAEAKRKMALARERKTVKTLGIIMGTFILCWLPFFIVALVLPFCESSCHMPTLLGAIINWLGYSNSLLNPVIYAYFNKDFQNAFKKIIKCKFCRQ
The series is described as follows: [3H] 8-OH-DPAT displacement from the 5-HT1A serotonin receptor (CHO cells). It is filed as binding. The following applies: for inhibition at 1 µM: @ 1000 nM, printed in the 5-HT1A Ki column. From the text:
High affinity for the serotonin 5-HT1A receptor was established by testing the claimed compound's ability to displace [^3H] 8-OH-DPAT (dipropylaminotetralin) from the 5-HT1A serotonin receptor following a modification of the procedure of Hall et al., J. Neurochem. 44, 1685 (1985) which utilizes CHO cells stably transfected with human 5-HT1A receptors.

For another series, the target named is T3, Human 5-HT Transporter (Homo sapiens, UniProt P31645).
T3 construct: endogenous in cells; host or cells: Jar cells (human carcinoma), treated with staurosporine
T3 sequence (P31645 whole entry): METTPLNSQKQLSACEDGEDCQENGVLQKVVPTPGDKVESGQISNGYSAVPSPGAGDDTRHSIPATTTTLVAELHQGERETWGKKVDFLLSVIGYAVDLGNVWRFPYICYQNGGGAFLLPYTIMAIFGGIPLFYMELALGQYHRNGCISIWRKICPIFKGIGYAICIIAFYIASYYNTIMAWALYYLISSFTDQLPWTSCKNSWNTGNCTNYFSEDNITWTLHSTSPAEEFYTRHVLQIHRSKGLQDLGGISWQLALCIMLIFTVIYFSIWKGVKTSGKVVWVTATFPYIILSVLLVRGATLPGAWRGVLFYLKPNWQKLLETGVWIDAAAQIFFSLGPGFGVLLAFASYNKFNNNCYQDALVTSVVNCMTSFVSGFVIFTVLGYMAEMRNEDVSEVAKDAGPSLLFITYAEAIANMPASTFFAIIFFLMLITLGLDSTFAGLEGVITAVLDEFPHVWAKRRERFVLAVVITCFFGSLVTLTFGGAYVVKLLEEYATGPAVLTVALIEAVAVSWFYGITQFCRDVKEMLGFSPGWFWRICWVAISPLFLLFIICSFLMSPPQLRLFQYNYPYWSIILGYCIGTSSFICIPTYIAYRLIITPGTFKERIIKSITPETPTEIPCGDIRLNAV
The series is described as follows: Inhibition of 3H-5-HT Uptake by cells Possessing the Human 5-HT Transporter (HC 5HT Transporter). It is filed as cell-based. The procedure: [Staurosporine greatly increases the expression of the 5-HT-transporter.] On the day of assay, vehicle, excess of fluoxetine, or test compound is added to various wells on the plate. All wells then receive ^3H-5-HT and are incubated at 37° C. for 5 min. The wells are then washed with ice cold 50 mM Tris HCl (pH 7.4) buffer and aspirated to remove free ^3H-5-HT. 25 μl of 0.25 M NaOH is then added to each well to lyse the cells and 75 μl scintillation cocktail (Microscint™ 20) added prior to quantitation on a Packard TopCount machine. Tubes with vehicle represent total possible uptake, radioactivity counted in tubes with fluoxetine represent nonspecific binding/uptake and is subtracted from the total possible uptake to give total possible specific uptake. This nonspecific binding (usual low in number) is then subtracted from the counts obtained in wells with various test compounds (or different concentrations of test drug) to give specific uptake in the presence of drug. Specific uptake is then expressed as a % of control values and is analyzed using nonlinear regression analysis (Prizm) to determine IC50 values. If the compound is active at inhibiting 5-HT uptake, its counts will be close to that obtained with fluoxetine.

Where [1] appears, read: Jar cells, 3H-5-HT uptake, read-out: HC 5HT Transporter IC50.
Setting [2] is: rat frontal cortical membranes, 3H-paroxetine, read-out: RB 5HT Transporter Ki.
[3] abbreviates: [3H] 8-OH-DPAT displacement, CHO cells with human 5-HT1A receptors, read-out: 5-HT1A Ki.

Read-outs that look alike come from different tables or passages of the source.

T1 sequence (P31652 whole entry): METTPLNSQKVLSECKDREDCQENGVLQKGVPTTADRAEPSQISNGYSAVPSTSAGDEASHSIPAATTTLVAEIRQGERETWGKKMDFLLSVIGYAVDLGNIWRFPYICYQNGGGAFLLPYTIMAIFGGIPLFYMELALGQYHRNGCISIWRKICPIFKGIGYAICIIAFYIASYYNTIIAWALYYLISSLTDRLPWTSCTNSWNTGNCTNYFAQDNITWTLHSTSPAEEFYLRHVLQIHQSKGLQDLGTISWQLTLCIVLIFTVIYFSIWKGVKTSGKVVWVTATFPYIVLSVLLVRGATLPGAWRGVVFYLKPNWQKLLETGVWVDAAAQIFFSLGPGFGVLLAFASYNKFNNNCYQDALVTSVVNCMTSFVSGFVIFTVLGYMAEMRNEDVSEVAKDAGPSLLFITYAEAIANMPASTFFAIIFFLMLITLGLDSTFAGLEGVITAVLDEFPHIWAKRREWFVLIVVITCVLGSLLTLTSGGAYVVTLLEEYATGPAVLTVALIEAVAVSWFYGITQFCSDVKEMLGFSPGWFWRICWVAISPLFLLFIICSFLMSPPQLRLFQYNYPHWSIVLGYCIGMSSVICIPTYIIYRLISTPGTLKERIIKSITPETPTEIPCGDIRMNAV

As a reminder, the melting point is the temperature, or range, at which the solid turns liquid. On to `O=c1n(CCCN2CC=C(c3c[nH]c4ccccc34)CC2)nc2ccccn12`, for which the melting point amounted to 173.3 °C.
As to `O=c1n(CCN2CC=C(c3c[nH]c4ccccc34)CC2)nc2ccccn12`, the melting point was 170.4 °C.
For the compound `O=c1n(CCCCN2CC=C(c3c[nH]c4ccccc34)CC2)nc2ccccn12`, the melting point was found to be 123.2 °C.
The term Ki denotes the dissociation constant of the complex between target and ligand, obtained from inhibition or displacement. Broadly, the IC50 is the point on the concentration scale where inhibition reaches its midpoint. For `COc1cc2ncn(CCN3CC=C(c4c[nH]c5ccccc45)CC3)c(=O)c2cc1OC` [Example 1, 3-[2-(4-(1H-indol-3-yl)-3,6-dihydro-1(2H)-pyridinyl)ethyl]-6-7-dimethoxy-4(3H)-quinazolinone], the melting point is 219 °C. On 5-HT transporter, this compound registered a Ki of 2.87 nM. For the same compound, the Ki on human 5-HT1A receptors was 83.8 nM. Besides, the concentration for half-maximal inhibition (IC50) at Human 5-HT Transporter (setting [1]) is 125 nM.
Take `COc1cc2ncn(CCN3CCC(c4c[nH]c5ccccc45)CC3)c(=O)c2cc1OC` [Example 2, 3-{2-[4-(1H-indol-3-yl)-1-piperidinyl]ethyl}-6-7-dimethoxy-4(3H)-quinazolinone]: the melting point worked out at 230 °C. The inhibition constant (Ki) at 5-HT transporter (setting [2]) was determined as 36 nM. Further, the Ki on human 5-HT1A receptors (setting [3]) was determined as 72.1 nM. The 50% inhibitory concentration (IC50) at Human 5-HT Transporter (setting [1]) amounted to 273 nM.
Compound `COc1cc2ncn(CCN3CC=C(c4c[nH]c5ccc(F)cc45)CC3)c(=O)c2cc1OC` [Example 3, 3-[2-(4-(5-fluoro-1H-indol-3-yl)-3,6-dihydro-1(2H)-pyridinyl)ethyl]-6-7-dimethoxy-4(3H)-quinazolinone] came in with a melting point of 210 °C. Besides, on 5-HT transporter (setting [2]), the Ki is 4.57 nM. Also, on human 5-HT1A receptors (setting [3]), the inhibition constant (Ki) worked out at 82.2 nM.
On to `COc1cc2ncn(CCCCN3CC=C(c4c[nH]c5ccccc45)CC3)c(=O)c2cc1OC` [Example 4, 3-[4-(4-(1H-indol-3-yl)-3,6-dihydro-1(2H)-pyridinyl)butyl]-6-7-dimethoxy-4(3H)-quinazolinone], for which the Ki came to 1.25 nM on 5-HT transporter and 215 nM at human 5-HT1A receptors (setting [3]). The concentration for half-maximal inhibition (IC50) on Human 5-HT Transporter (setting [1]) came to 132 nM.
Turning to `COc1cc2ncn(CCCCN3CCC(c4c[nH]c5ccccc45)CC3)c(=O)c2cc1OC` [Example 5, 3-{4-[4-(1H-indol-3-yl)-1-piperdinyl]butyl}-6,7-dimethoxy-4(3H)-quinazolinone], the Ki on 5-HT transporter (setting [2]) stood at 4.12 nM; at human 5-HT1A receptors (setting [3]), 86.8 nM. Further, the IC50 on Human 5-HT Transporter (setting [1]) worked out at 55.3 nM.
For the compound `COc1cc2ncn(CCCN3CC=C(c4c[nH]c5ccccc45)CC3)c(=O)c2cc1OC` [Example 6, 3-[3-(4-(1H-indol-3-yl)-3,6-dihydro-1(2H)-pyridinyl)propyl]-6-7-dimethoxy-4(3H)-quinazolinone], the Ki at 5-HT transporter amounted to 0.8 nM; at human 5-HT1A receptors (setting [3]), 286 nM. In addition, half-maximal inhibition on Human 5-HT Transporter (IC50) was put at 43.2 nM.
`COc1cc2ncn(CCCN3CCC(c4c[nH]c5ccccc45)CC3)c(=O)c2cc1OC` [Example 7, 3-{3-(4-(1H-indol-3-yl)-1-piperidinyl]propyl}-6-7-dimethoxy-4(3H)-quinazolinone]: the inhibitory constant (Ki) at 5-HT transporter (setting [2]) came out at 11 nM; at human 5-HT1A receptors (setting [3]), 201 nM. Also, the IC50 on Human 5-HT Transporter (setting [1]) was determined as 173 nM.
One may read the inhibition as the percentage by which the read-out fell short of the control. Lower therefore signals a weak effect. `COc1cc2ncn(CCCN3CC=C(c4c[nH]c5ccc(F)cc45)CC3)c(=O)c2cc1OC` [Example 8, 3-[3-(4-(5-fluoro-1H-indol-3-yl)-3,6-dihydro-1(2H)-pyridinyl)propyl]-6-7-dimethoxy-4(3H)-quinazolinone]: the melting point was determined as 120 °C. The same compound showed a Ki on 5-HT transporter of 1.92 nM. The same compound returned an inhibition at 1 µM at human 5-HT1A receptors of 31%.
`O=c1c2cc(Cl)cc(Br)c2ncn1CCCN1CC=C(c2c[nH]c3ccccc23)CC1` [Example 9, 8-bromo-6-chloro-3-[3-(4-(1H-indol-3-yl)-3,6-dihydro-1(2H)-pyridinyl)propyl]-4(3H)-quinazolinone] displayed a melting point of 192 °C. The same compound yielded a Ki at 5-HT transporter of 0.31 nM. Also, testing at 1 µM on human 5-HT1A receptors gave an inhibition of 4%.
Regarding `O=c1c2cc(Cl)ccc2ncn1CCCN1CC=C(c2c[nH]c3ccccc23)CC1` [Example 10, 6-chloro-3-[3-(4-(1H-indol-3-yl)-3,6-dihydro-1(2H)-pyridinyl)propyl]-4(3H)-quinazolinone], on 5-HT transporter, affinity was put at a Ki of 1.14 nM. The inhibition at 1 µM at human 5-HT1A receptors came out at 7%. On Human 5-HT Transporter (setting [1]), the IC50 worked out at 268 nM.
Take `O=c1c2cc(Cl)ccc2ncn1CCCN1CCC(c2c[nH]c3ccccc23)CC1` [Example 11, 6-chloro-3-{3-[4-(1H-indol-3-yl)-1-piperidinyl]propyl}-4(3H)-quinazolinone]: the Ki at 5-HT transporter (setting [2]) was determined as 40 nM. Besides, the inhibition at 1 µM on human 5-HT1A receptors came out at 26%. For the same compound, on Human 5-HT Transporter (setting [1]), the IC50 was 1910 nM.
On to `O=c1c2ccccc2ncn1CCN1CC=C(c2c[nH]c3ccccc23)CC1` [Example 12, 3-[2-(4-(1H-indol-3-yl)-3,6-dihydro-1(2H)-pyridinyl)ethyl]-4(3H)-quinazolinone], for which the Ki was 5.5 nM on 5-HT transporter (setting [2]) and 38.2 nM on human 5-HT1A receptors (setting [3]). The IC50 on Human 5-HT Transporter (setting [1]) was found to be 88.1 nM.
For `O=c1c2ccccc2ncn1CCN1CCC(c2c[nH]c3ccccc23)CC1` [Example 13, 3-{2-[4-(1H-indol-3-yl)-1-piperidinyl]ethyl}-4(3H)-quinazolinone], the inhibition constant Ki on 5-HT transporter (setting [2]) was 37 nM. The compound also yielded an inhibition at 1 µM on human 5-HT1A receptors of 42%. Besides, the half-inhibitory concentration (IC50) on Human 5-HT Transporter (setting [1]) was 651 nM.
In the case of `O=c1c2ccccc2nnn1CCN1CC=C(c2c[nH]c3ccccc23)CC1` [Example 16, 3-[2-(4-(1H-indol-3-yl)-3,6-dihydro-1(2H)-pyridinyl)ethyl]-1,2,3-benzotriazin-4(3H)-one], the Ki was found to be 3.52 nM on 5-HT transporter (setting [2]) and 56.7 nM on human 5-HT1A receptors (setting [3]). Also, the IC50 at Human 5-HT Transporter (setting [1]) came out at 37.5 nM.
For `O=c1c2ccccc2nnn1CCN1CCC(c2c[nH]c3ccccc23)CC1` [Example 17, 3-{2-[4-(1H-indol-3-yl)-1-piperidinyl)ethyl}-1,2,3-benzotriazin-4(3H)-one], the Ki is 16 nM on 5-HT transporter (setting [2]) and 119 nM on human 5-HT1A receptors (setting [3]). For the same compound, at Human 5-HT Transporter (setting [1]), the IC50 was 190 nM.
Take `Cn1cc(C2CCN(CCn3nnc4ccccc4c3=O)CC2)c2ccccc21` [Example 18, 3-{2-[4-(1-methyl-1H-indol-3-yl)-1-piperidinyl]ethyl}-1,2,3-benzotriazin-4(3H)-one]: the Ki on 5-HT transporter (setting [2]) amounted to 21 nM; on human 5-HT1A receptors (setting [3]) it was 80.9 nM. Also, at Human 5-HT Transporter (setting [1]), the IC50 stood at 231 nM.
With `O=c1c2ccccc2nnn1CCCN1CC=C(c2c[nH]c3ccccc23)CC1` [Example 19, 3-[3-(4-(1H-indol-3-yl)-3,6-dihydro-1(2H)-pyridinyl)propyl]-1,2,3-benzotriazin-4(3H)-one], the Ki was 0.15 nM on 5-HT transporter and 315 nM on human 5-HT1A receptors (setting [3]). This compound also showed an IC50 on Human 5-HT Transporter of 15.7 nM.
Regarding `O=c1c2ccccc2nnn1CCCN1CCC(c2c[nH]c3ccccc23)CC1` [Example 20, 3-{3-[4-(1H-indol-3-yl)-1-piperidin]propyl}-1,2,3-benzotriazin-4(3H)-one], at 5-HT transporter (setting [2]), the Ki amounted to 10 nM. Besides, the inhibition at 1 µM on human 5-HT1A receptors came out at 49%.
The compound `Cn1cc(C2=CCN(CCCn3nnc4ccccc4c3=O)CC2)c2ccccc21` [Example 21, 3-[3-(4-(1-methyl-1H-indol-3-yl)-3,6-dihydro-1(2H)-pyridinyl)propyl]-1,2,3-benzotriazin-4(3H)-one] showed a melting point of 70 °C. Also, affinity on 5-HT transporter was put at a Ki of 0.56 nM. For the same compound, the Ki on human 5-HT1A receptors (setting [3]) is 631 nM.
For the compound `O=c1n(CCCN2CCC(c3c[nH]c4ccccc34)CC2)nc2ccccn12` [Example 23, 2-{3-[4-(1H-Indol-3-yl)-piperidin-1-yl]-propyl}-2H-[1,2,4]triazolo[4,3-a]pyridin-3-one], the melting point stood at 111.7 °C.
Regarding `O=c1n(CCN2CCC(c3c[nH]c4ccccc34)CC2)nc2ccccn12` [Example 25, 2-{2-[4-(1H-Indol-3-yl)-piperidin-1-yl]-ethyl}-2H-[1,2,4]triazolo[4,3-a]pyridin-3-one], the melting point was found to be 142 °C.
